This experiment has as its system Euglena wild strain. Kind of experiment: Growth inhibition / drug sensitivity of the Euglena wild strain in KH medium. In kind it is cell-based, Euglena gracilis. As to the method: Euglena gracilis Klebs Z strain (hereafter, “Euglena wild strain”), which has chloroplasts, was used.
Koren-Hutner medium (KH medium) was used as a heterotrophic medium (Table 1). 150 ml of the KH medium adjusted to a pH of 6.8 was placed in a 500 ml Sakaguchi flask and sterilized by autoclaving at 121° C. for 15 minutes. 1 ml of Euglena that reached the stationary phase by culturing for about 4 to 7 days (10 to 15×10^6 cells/ml) was inoculated into the medium, followed by culture with shaking at 27° C. under continuous light conditions for 24 hours. A plate medium was prepared by adding 1.0%(w/v) of agar powder.
The minimum inhibitory concentration of zeocin for the Euglena wild strain in a medium at a pH of 6.8 was examined. […] The growth inhibition was observed even when the number of cells at the start of culture was relatively large (2.0×10^6 cells/ml in a liquid medium, 2.0×10^6 cells/plate in a plate medium).
The influence of cefotaxime, which is used to remove Agrobacterium, on the growth of Euglena in transformation by the Agrobacterium method was examined. The results reveal that cefotaxime had no influence on the growth of the Euglena wild strain to at least 500 μg/ml (FIG. 8). Thus, a selective medium containing cefotaxime was used.

In brackets after ≈: the same amount, converted by molar mass.

For the molecule `CO/N=C(\C(=O)N[C@@H]1C(=O)N2C(C(=O)O)=C(COC(C)=O)CS[C@H]12)c1csc(N)n1` [cefotaxime], under “to at least 500 μg/ml (FIG. 8)”, the “Influence on the growth of the Euglena wild strain” value is given as “no influence”.

On to `Cc1c(N)nc([C@H](CC(N)=O)NC[C@H](N)C(N)=O)nc1C(=O)N[C@H](C(=O)N[C@H](C)[C@@H](O)[C@H](C)C(=O)N[C@H](C(=O)NCCC1=N[C@@H](c2nc(C(=O)NCCCCN=C(N)N)cs2)CS1)[C@@H](C)O)[C@@H](O[C@@H]1O[C@@H](CO)[C@@H](O)[C@H](O)[C@@H]1O[C@H]1O[C@H](CO)[C@@H](O)[C@H](OC(N)=O)[C@@H]1O)c1cnc[nH]1` [zeocin], for which, under “liquid medium, pH of 6.8”, the “Minimum inhibitory concentration (growth completely inhibited)” value came out at 50 µg/mL (≈ 35 µM). Besides, the “Growth of the Euglena wild strain” value (medium containing 100 μg/ml of zeocin, liquid medium (FIG. 5) or plate medium (FIG. 6)) is reported as “almost completely inhibited”. Besides, the “Minimum inhibitory concentration (growth nearly inhibited)” value (plate medium, pH of 6.8) is 25 µg/mL (≈ 17.5 µM).

As for `CN[C@@H]1[C@@H](O)[C@@H](O[C@@H]2[C@@H](O)[C@H](O[C@H]3O[C@H]([C@@H](C)O)[C@@H](O)[C@H](O)[C@H]3N)[C@@H](N)C[C@H]2N)OC[C@]1(C)O` [G418], the “Growth of the Euglena wild strain” value (as the concentrations increased (FIGS. 9 and 10)) is “inhibited the growth”.

The record behind these values is patent US20150368655A1, “TRANSFORMED EUGLENA AND PROCESS FOR PRODUCING SAME” (OSAKA PREFECTURE UNIVERSITY PUBLIC CORPORATION, priority 2012, published 2015).
